Assay results: patent US20090100532A1, “TRANSGENIC MICE EXPRESSING HYPERSENSITIVE NICOTINIC RECEPTORS” (CALIFORNIA INSTITUTE OF TECHNOLOGY, priority 2007, published 2009)
Where “and” joins values, the source holds several entries; their conditions need not be identical. Identical values can stand only once. Like-named read-outs stand apart in the source and are kept apart here.

Assays:
[1] = molecular target: tonically active α6^L9′S channels in VTA DA neurons (Mus musculus, UniProt Q9ERK7+Q9R0W9, L280S); type: cell-based
Sequence of tonically active α6^L9′S channels in VTA DA neurons (Q9ERK7 whole entry, looked up, stated change not applied): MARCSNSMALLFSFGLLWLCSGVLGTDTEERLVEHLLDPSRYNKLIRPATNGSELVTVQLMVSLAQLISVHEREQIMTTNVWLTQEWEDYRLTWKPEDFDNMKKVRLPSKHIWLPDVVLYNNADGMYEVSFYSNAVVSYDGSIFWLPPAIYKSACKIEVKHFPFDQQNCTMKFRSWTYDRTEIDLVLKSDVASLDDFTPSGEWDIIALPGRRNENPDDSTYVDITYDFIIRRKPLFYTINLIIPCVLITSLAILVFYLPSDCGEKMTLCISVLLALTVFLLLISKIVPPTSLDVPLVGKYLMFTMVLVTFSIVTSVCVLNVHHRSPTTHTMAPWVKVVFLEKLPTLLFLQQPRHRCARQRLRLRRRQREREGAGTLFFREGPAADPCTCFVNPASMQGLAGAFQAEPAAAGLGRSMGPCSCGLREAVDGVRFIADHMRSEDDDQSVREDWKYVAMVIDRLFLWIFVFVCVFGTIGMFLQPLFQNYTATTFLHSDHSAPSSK
Sequence of tonically active α6^L9′S channels in VTA DA neurons (Q9R0W9 whole entry, looked up, stated change not applied): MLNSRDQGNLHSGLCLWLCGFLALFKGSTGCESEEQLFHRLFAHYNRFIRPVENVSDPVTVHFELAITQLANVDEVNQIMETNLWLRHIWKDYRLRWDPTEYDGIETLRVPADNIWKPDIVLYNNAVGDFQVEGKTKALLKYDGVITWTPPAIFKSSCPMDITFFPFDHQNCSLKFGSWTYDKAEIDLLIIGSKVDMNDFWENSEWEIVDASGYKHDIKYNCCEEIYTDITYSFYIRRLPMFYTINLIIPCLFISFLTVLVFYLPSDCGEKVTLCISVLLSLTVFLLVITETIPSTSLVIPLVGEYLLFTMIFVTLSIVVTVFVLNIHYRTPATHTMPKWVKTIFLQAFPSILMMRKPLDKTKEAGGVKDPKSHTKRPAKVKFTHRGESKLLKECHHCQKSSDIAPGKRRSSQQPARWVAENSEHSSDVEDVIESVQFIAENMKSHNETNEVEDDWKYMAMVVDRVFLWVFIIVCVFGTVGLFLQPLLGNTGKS

[2] = molecular target: hypersensitive nicotinic receptors in α6L9′S VTA DA neurons (Mus musculus, UniProt Q9ERK7+Q9R0W9, L280S); type: cell-based
Sequence of hypersensitive nicotinic receptors in α6L9′S VTA DA neurons (Q9ERK7 whole entry, looked up, stated change not applied): as the sequence (Q9ERK7 whole entry, looked up, stated change not applied) above
Sequence of hypersensitive nicotinic receptors in α6L9′S VTA DA neurons (Q9R0W9 whole entry, looked up, stated change not applied): as the sequence (Q9R0W9 whole entry, looked up, stated change not applied) above

[3] = system: N2a cells; experiment: TIRF imaging of actin-containing membrane protrusions in N2a cells; type: cell-based, mouse
Method: TIRF Microscopy. N2a cells cultured in glass-bottomed, polyethylenimine-coated imaging dishes were transfected with cDNA mixtures as described above. Cells, superfused with the same imaging solution used for confocal microscopy, were imaged 18 to 24 h after transfection to minimize overexpression artifacts. TIRF images were obtained with an inverted microscope (Olympus IX71; Olympus America, Inc., Center Valley, Pa.) equipped with a 488-nm air-cooled argon laser (P/N IMA111040ALS; Melles Griot, Carlsbad, Calif.). Laser output was controlled with a UNIBLITZ shutter system and drive unit (P/N VMM-D1; Vincent Associates, Rochester, N.Y.) equipped with a Mitutoyo (Mitutoyo America, City of Industry, CA) micrometer to control TIRF evanescent field illumination. TIRF imaging was carried out with an Olympus PlanApo 100×1.45 NA oil objective, and images were captured with a 16-bit resolution Photometrics Cascade charge-coupled device camera (Photometrics, Tucson, Ariz.) controlled by SlideBook 4.0 imaging software (Intelligent Imaging Innovations, Santa Monica, Calif.).

[4] = system: α6^L9′S mice; conditions: mouse, in vivo
Method: (§1) Locomotor Activity. Mice used to study locomotion were eight to sixteen weeks old by the beginning of an experiment, and were back-crossed to C57BL/6 at least three times. […] Mouse horizontal locomotor activity was measured with an infrared photobeam activity cage system (San Diego Instruments; San Diego, Calif.). Ambulation events were recorded when two contiguous photobeams were broken in succession. Acute locomotor activity in response to nicotinic ligands or other agents was studied by recording ambulation events during four 15 sec intervals per minute for a designated number of minutes. For most experiments, groups of eight mice were placed in the activity cages (18×28 cm) and their baseline level of activity was recorded for eight minutes. Mice were removed from their cage, injected (100 μl per 25 g body mass), and returned to the cage within 15 sec. […] For generation of locomotor activity concentration-response relationship profiles, a group of mice was administered saline and, after five to eight days off, each successive dose of drug. […] For 48 h home cage monitoring, mice were isolated in their own cage and habituated to the test room and cage for 24 h. Following this, locomotor activity was recorded in 15 min intervals for 48 h.

[5] = system: VTA DA neurons
[6] = molecular target: T1, α4β2* (non-α6) nAChRs (Mus musculus, UniProt O70174+Q9ERK7); experiment: biochemical; type: biochemical; conditions: for EC50: read-out: EC50 (±SEM), MII-resistant DA release
T1 construct: from tissue; host or cells: striatal / olfactory tubercle synaptosomes of WT and α6L9′S mice
T1 sequence (Q9ERK7 26-501): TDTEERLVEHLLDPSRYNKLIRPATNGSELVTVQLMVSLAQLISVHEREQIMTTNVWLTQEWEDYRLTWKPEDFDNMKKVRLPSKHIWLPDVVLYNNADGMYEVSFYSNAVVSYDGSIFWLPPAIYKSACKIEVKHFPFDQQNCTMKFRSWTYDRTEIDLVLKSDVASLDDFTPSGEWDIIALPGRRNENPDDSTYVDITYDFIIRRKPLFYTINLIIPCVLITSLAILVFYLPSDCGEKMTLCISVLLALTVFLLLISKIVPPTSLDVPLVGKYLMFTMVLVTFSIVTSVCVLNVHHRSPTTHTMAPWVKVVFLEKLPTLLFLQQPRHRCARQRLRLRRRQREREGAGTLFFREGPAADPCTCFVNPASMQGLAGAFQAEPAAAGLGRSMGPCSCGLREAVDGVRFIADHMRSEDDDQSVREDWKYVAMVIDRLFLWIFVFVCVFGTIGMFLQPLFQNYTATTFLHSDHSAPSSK
T1 sequence (O70174 31-629): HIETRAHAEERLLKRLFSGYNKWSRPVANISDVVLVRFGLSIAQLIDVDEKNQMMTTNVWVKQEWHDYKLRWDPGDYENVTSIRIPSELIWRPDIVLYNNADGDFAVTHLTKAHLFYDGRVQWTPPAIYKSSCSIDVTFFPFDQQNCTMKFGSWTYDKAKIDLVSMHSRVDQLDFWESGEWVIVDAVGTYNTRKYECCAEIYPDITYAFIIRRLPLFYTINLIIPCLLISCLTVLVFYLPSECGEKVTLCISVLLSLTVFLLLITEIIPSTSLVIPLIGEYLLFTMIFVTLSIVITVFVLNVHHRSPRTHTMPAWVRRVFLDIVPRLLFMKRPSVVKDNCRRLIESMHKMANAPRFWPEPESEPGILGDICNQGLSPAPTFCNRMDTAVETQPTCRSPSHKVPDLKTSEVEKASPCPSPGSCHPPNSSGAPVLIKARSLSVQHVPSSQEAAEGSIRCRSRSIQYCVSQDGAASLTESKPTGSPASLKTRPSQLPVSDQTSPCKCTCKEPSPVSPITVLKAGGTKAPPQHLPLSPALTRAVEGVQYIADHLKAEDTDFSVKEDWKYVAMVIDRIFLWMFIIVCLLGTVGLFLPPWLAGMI
Method: (§2) Neurotransmitter Release from Striatal Synaptosomes. After a mouse was sacrificed by cervical dislocation, its brain was removed and placed immediately on an ice-cold platform and brain regions were dissected. Tissues from each mouse were homogenized in 0.5 ml of ice-cold 0.32 M sucrose buffered with 5 mM HEPES, pH 7.5. A crude synaptosomal pellet was prepared by centrifugation at 12,000 g for 20 min. The pellets were resuspended in “uptake buffer”: 128 mM NaCl, 2.4 mM KCl, 3.2 mM CaCl2, 1.2 mM KH2PO4, 1.2 mM MgSO4, 25 mM HEPES, pH 7.5, 10 mM glucose. For DA uptake, buffer was supplemented with 1 mM ascorbic acid and 0.01 mM pargyline, whereas for GABA uptake, buffer was supplemented with 1 mM aminooxyacetic acid. For [^3H]GABA uptake, synaptosomes were incubated for 10 min at 37° C. […] For DA uptake, synaptosomes were incubated at 37° C. in uptake buffer for 10 min before addition of 100 nM [^3H]dopamine (1 μCi for every 0.2 ml of synaptosomes), and the suspension was incubated for an additional 5 min.
(§3) All experiments were conducted at room temperature using methods described previously (Nashmi et al., 2007; Salminen et al., 2007) with modifications for collection into 96-well plates. In brief, aliquots of synaptosomes (80 μl) were distributed onto filters and perfused with buffer (uptake buffer containing 0.1% bovine serum albumin and 1 μM atropine with 1 μM nomifensine (for DA release) or 0.1 μM NNC-711 [1-(2-(((diphenylmethylene)amino)oxy)ethyl)-1,2,5,6-tetrahydro-3-pyridinecarboxylic acid hydrochloride]) (for GABA release) at 0.7 ml/min for 10 min, or buffer for 5 min followed by buffer with 50 nM αCtxMII. […] Fractions (−0.1 ml) were collected for 4 min into 96-well plates every 10 sec starting from 1 min before stimulation, using a Gilson FC204 fraction collector with a multicolumn adapter (Gilson, Inc.; Middleton, Wis.). Radioactivity was determined by scintillation counting using a 1450 MicroBeta Trilux scintillation counter (Perkin Elmer Life Sciences-Wallac Oy; Turku, Finland) after addition of 0.15 ml Optiphase ‘SuperMix’ scintillation cocktail. Instrument efficiency was 40%.
(§4) Data were analyzed using SigmaPlot 5.0 for DOS. Perfusion data were plotted as counts per minute versus fraction number. Fractions collected before and after the peak were used to calculate baseline as a single exponential decay. The calculated baseline was subtracted from the experimental data. Fractions that exceeded baseline by 10% or more were sunmmed to give total released cpm and then normalized to baseline to give units of release [(cpm-baseline)/baseline]. Agonist dose response data were fit to the Hill equation.

[7] = molecular target: T2, α6* nAChRs (Mus musculus, UniProt Q9ERK7+Q9R0W9); experiment: biochemical; type: biochemical
T2 construct: from tissue
T2 sequence (Q9R0W9 31-494): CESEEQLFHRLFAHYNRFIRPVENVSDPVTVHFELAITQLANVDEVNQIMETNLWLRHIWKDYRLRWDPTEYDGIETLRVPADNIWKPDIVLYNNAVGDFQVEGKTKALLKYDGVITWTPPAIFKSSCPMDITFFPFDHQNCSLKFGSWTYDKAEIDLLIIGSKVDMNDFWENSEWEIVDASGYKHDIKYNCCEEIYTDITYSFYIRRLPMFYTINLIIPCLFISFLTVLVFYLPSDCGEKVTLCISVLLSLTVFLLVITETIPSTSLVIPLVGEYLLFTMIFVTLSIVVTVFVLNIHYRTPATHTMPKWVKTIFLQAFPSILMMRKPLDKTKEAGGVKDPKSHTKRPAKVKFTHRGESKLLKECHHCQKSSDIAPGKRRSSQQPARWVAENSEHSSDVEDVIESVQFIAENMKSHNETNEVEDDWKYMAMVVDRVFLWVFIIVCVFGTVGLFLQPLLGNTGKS
T2 sequence (Q8BMN3 31-464, further chain): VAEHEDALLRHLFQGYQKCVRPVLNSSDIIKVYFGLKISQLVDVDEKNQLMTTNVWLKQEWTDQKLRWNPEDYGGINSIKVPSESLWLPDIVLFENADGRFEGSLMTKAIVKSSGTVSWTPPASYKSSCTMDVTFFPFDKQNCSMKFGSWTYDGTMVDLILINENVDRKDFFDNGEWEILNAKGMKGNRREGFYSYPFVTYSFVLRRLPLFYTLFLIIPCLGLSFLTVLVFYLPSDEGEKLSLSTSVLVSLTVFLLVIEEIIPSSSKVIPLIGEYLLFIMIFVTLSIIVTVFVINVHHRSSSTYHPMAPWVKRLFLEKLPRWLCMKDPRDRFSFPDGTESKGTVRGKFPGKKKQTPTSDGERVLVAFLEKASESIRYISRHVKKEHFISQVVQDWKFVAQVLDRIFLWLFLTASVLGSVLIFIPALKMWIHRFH
T2 sequence (Q9ERK7 26-501): as the sequence (Q9ERK7 26-501) above
Method: as §2, §3, §4

[8] = molecular target: T3, α6* nAChRs (Mus musculus, UniProt Q9ERK7+Q9R0W9, L280S); experiment: biochemical; type: biochemical
T3 construct: from tissue
T3 sequence (Q9ERK7 26-501, stated change not applied): as the sequence (Q9ERK7 26-501) above
T3 sequence (Q8BMN3 31-464, further chain): as the sequence (Q8BMN3 31-464, further chain) above
T3 sequence (Q9R0W9 31-494 L280S): as the sequence (Q9R0W9 31-494) above, with L250S counted along it
Method: as §2, §3, §4

[9] = system: nAChRs; type: biochemical, mouse; conditions: for EC50: read-out: EC50 (±SEM), Total DA release
Method: as §2, §3, §4

[10] = system: LC neurons (α6* nAChRs); type: cell-based, mouse
[11] = system: striatal (ST and OT combined) synaptosomes
Method: as §2, §3, §4

[12] = system: WT mice; conditions: mouse, in vivo
Method: as §1

[13] = molecular target: T4, α3β4 receptors (UniProt P12392+P32297); experiment: Two-electrode voltage clamp, X. laevis oocytes, α3β4; type: cell-based
T4 construct: expressed in transfected cells; host or cells: Xenopus laevis oocytes injected with cRNA
T4 sequence (P32297 32-505): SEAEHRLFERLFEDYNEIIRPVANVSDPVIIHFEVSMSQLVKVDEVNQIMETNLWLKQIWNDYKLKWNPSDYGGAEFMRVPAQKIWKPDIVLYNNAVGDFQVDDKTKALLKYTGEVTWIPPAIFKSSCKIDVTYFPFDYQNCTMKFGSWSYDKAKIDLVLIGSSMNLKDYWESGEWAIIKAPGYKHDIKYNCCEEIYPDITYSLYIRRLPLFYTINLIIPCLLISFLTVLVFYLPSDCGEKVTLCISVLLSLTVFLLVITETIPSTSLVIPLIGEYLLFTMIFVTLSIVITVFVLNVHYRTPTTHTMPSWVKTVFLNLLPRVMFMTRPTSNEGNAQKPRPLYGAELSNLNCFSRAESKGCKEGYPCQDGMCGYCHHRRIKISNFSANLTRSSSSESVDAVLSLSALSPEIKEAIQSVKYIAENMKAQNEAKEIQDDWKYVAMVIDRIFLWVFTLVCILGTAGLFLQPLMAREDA
T4 sequence (P12392 21-495): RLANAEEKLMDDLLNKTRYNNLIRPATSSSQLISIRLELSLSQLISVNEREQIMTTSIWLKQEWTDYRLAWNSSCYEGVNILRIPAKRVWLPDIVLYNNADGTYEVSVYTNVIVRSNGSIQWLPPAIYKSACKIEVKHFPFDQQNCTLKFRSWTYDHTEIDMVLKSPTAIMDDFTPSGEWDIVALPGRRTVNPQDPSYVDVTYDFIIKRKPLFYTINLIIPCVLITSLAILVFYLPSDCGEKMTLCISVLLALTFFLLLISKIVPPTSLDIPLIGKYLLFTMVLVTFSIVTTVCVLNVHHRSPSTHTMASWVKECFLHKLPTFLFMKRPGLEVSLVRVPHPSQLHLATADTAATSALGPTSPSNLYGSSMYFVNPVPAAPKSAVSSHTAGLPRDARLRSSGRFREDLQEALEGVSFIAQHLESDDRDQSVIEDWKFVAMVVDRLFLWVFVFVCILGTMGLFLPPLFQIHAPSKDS
Method: (§5) Two-Electrode Voltage-Clamp Electrophysiology. Stage V to VI X. laevis oocytes were isolated as described previously (Quick and Lester, Ion Channels of Excitable Cells, Narahashi T ed., pp 261-279, 1994). Stock RNAs were diluted into diethyl pyrocarbonatetreated water and injected 1 day after isolation. RNA was injected in a final volume of 50 nl per oocyte using a digital microdispenser (Drummond Scientific, Broomall, Pa.). After injection, oocytes were incubated in ND-96 solution (96 mM NaCl, 2 mM KCl, 1 mM CaCl2, 1 mM MgCl2, and 5 mM HEPES/NaOH, pH 7.6) supplemented with 50 μg/ml gentamicin and 2.5 mM sodium pyruvate. After 1 to 4 days for nAChR expression, oocytes were used for recording or confocal microscopy.
(§6) Agonist-activated nicotinic receptor responses were measured by two-electrode voltage-clamp recording using a GeneClamp 500 (Molecular Devices, Sunnyvale, Calif.) voltage clamp. Electrodes were constructed from Kwik-Fil borosilicate glass capillary tubes (1B150F-4; WPI, Sarasota, Fla.) using a programmable microelectrode puller (P-87; Sutter Instrument Company, Novato, Calif.). The electrodes had tip resistances of 0.8 to 2.0 MΩ after filling with 3 M KCl. […]

[14] = molecular target: T5, α3β4β3 receptors (UniProt P12392+P32297); experiment: Two-electrode voltage clamp, X. laevis oocytes, α3β4β3; type: cell-based
T5 construct: expressed in transfected cells; host or cells: Xenopus laevis oocytes injected with cRNA
T5 sequence (P32297 32-505): as the sequence (P32297 32-505) above
T5 sequence (P12392 21-495): as the sequence (P12392 21-495) above
T5 sequence (Q8BMN3 31-464 partner): as the sequence (Q8BMN3 31-464, further chain) above
Method: as §5, §6

[15] = system: α4Yβ2 receptors; type: cell-based, mouse

N#Cc1cc2c(cc1[N+](=O)[O-])=NC(=O)C(=O)N=2 [CNQX, 6-cyano-7-nitroquinoxaline-2,3-dione]
effect on increased channel/membrane noise [1]: No effect | block of whole-cell responses to 1 μM nicotine [2]: unaffected

C/C1=C/C(=O)O[C@@H]2C[C@@H](CC[C@H](C)/C=C\CC1)O[C@@](O)([C@@H]1CSC(=O)N1)C2 [latrunculin B]
effect on actin-containing membrane protrusions [3]: destroyed

CCN1C[C@]2(COC(=O)c3ccccc3N3C(=O)C[C@H](C)C3=O)CC[C@H](OC)[C@@]34[C@@H]5C[C@H]6[C@H](OC)[C@@H]5[C@](O)(C[C@@H]6OC)[C@@](O)([C@@H](OC)[C@H]23)[C@@H]14 [MLA, methyllycaconitine]
block of whole-cell responses to 1 μM nicotine [2]: 0%

CCN1CCCC1CNC(=O)c1cc(S(N)(=O)=O)ccc1OC (stereo not drawn) [sulpiride]
effect of antagonist pre-injection on nicotine-stimulated locomotor response [4]: partially inhibited | baseline firing of VTA DA cells [5]: modestly increase baseline firing | effect on nicotine-induced increases in firing [5]: did not affect

CNCC/C=C/c1cccnc1 [TC 2403]
%10 μM nic, MII-resistant DA release [6]: 81.78% and 81.48% and 90.64% | Rmax (±SEM), MII-resistant DA release [6]: 7.26 ± 0.29 and 9.3 ± 0.33 | agonist character at α4β2 for DA release (vs. nicotine) [6]: full agonist (vs. nicotine) | Rmax (±SEM), MII-resistant DA release ([6]; ST/OT, WT): 12.32 ± 0.26 | EC50 ([6]; ST/OT, WT): 2850 ± 350 nM | EC50 [6]: 3530 nM and 4030 nM | %10 μM nic, MII-sensitive DA release [7]: 28.83% | agonist character at α6β2* for DA release (vs. nicotine) [7]: no activity | Rmax (±SEM), MII-sensitive DA release ([7]; ST/OT, WT): 0.47 ± 0.2 | EC50 ([7]; ST/OT, WT, read-out: EC50 (±SEM), MII-sensitive DA release): 60 ± 180 nM | %10 μM nic, MII-sensitive DA release [8]: 44.85% and 33.01% | Rmax (±SEM), MII-sensitive DA release [8]: 4.83 ± 0.15 and 3.43 ± 0.32 | agonist character at the αCtxMII-sensitive receptor [8]: partial agonist | EC50 ([8]; read-out: EC50 (±SEM), MII-sensitive DA release): 190 nM and 100 nM | locomotor activity [4]: slight locomotor activation | %10 μM nic, Total DA release [9]: 74.11% and 54.47% and 51.19% | Rmax (±SEM), Total DA release [9]: 10.72 ± 0.61 and 10.57 ± 0.74 | Rmax (±SEM), Total DA release ([9]; ST/OT, WT): 12.37 ± 0.93 | EC50 ([9]; ST/OT, WT): 2360 ± 560 nM | EC50 [9]: 700 nM and 820 nM | potency and efficacy for DA release, α6^L9′S relative to WT ([9]; striatal synaptosomes): slightly more potent and had equivalent efficacy

CO[C@H]1CC=C2CCN3CCC4=C(CC(=O)OC4)[C@]23C1 [DHβE, dihydro-β-erythroidine]
effect on increased channel/membrane noise [1]: completely eliminated | block of whole-cell responses to 1 μM nicotine [2]: 100%

α-conotoxin MII [αCtxMII]
effect on increased channel/membrane noise [1]: completely eliminated | inhibition of nicotine responses in LC neurons [10]: sensitive to αCtxMII | block of whole-cell responses to 1 μM nicotine [2]: > 90% | persistence of block after washout [2]: 30 min

[K+] [K^+]
GABA release stimulated by 20 mM K^+ [11]: 8.31 ± 0.34 and 8.24 ± 0.45 and 8.43 ± 0.50

CNC1(C)C2CCC(C2)C1(C)C (stereo not drawn) [mecamylamine]
effect of antagonist pre-injection on nicotine-stimulated locomotor response [4]: strong block of the locomotor response

COc1cc2nc(N3CCN(C(=O)c4ccco4)CC3)nc(N)c2cc1OC [prazosin]
effect of antagonist pre-injection on nicotine-stimulated locomotor response [4]: no change was found

c1cncc(C2CC3CCN2CC3)c1 (racemic) [TC 2429]
locomotor suppression [12]: did not produce locomotor suppression | locomotor activity [4]: stimulated locomotor activity | %10 μM nic, Total DA release [9]: 49.0% and 73.40% and 71.00% | Rmax (±SEM), Total DA release [9]: 8.68 ± 1.25 and 12.87 ± 0.37 and 11.86 ± 0.41

CC(=O)OCC[N+](C)(C)C [ACh, acetylcholine]
EC50 [13]: 165000 ± 9000 nM | EC50 [14]: 230000 ± 22000 nM | voltage-clamped responses [15]: 200-400 pA

picrotoxin
effect on increased channel/membrane noise [1]: No effect

NC1=N[C@H](O)[C@H]2[C@H]3O[C@]4(O)O[C@@H]([C@@H](O)[C@@]2(N1)[C@@H]4O)[C@]3(O)CO [TTX, tetrodotoxin]
effect on increased channel/membrane noise [1]: No effect | block of whole-cell responses to 1 μM nicotine [2]: unaffected

COC(=O)[C@@H]1[C@H]2C[C@H]3c4[nH]c5ccccc5c4CCN3C[C@@H]2CC[C@@H]1O [yohimbine]
effect of antagonist pre-injection on nicotine-stimulated locomotor response [4]: no change was found
